Results published in patent US20120077831A1, “METHODS AND ASSAYS FOR THE TREATMENT OF IRRITABLE BOWEL SYNDROME” (priority 2009, published 2012).

Experiments:
[1] = tested on: patients suffering from IBS-D or IBS-A; assay: phase 2a clinical trial in IBS patients: weekly global assessment and Bristol Stool Scale; assay type: in vivo, human
Experimental: (§1) A randomized, double-blind, placebo-controlled phase 2a clinical trial was conducted to assess the safety and efficacy of a TPH inhibitor, (S)-2-amino-3-(4-(2-amino-6-((R)-2,2,2-trifluoro-1-(3′-methoxybiphenyl-4-yl)ethoxy)pyrimidin-4-yl)phenyl)propanoic acid, in 155 patients suffering from IBS-D or IBS-A, based on Rome III criteria. Capsules containing the compound or placebo were orally administered. Two dose levels were tested: 250 mg QID and 1000 mg QID. A two-week run-in period was used to establish baseline symptoms, followed by a 28 day randomized, double-blind treatment period. There was then a two-week follow-up period.
(§2) During the study, patients' urine and blood were obtained to assess 5-HIAA and 5-HT levels. Methods used to assess clinical endpoints were: 1) global assessment by weekly questioning regarding adequate relief of IBS pain and discomfort; and 2) Bristol Stool Scale was used to assess stool consistency by daily automated telephonic IVRS contact.

5-HIAA and 5-HT levels = assay: phase 2a clinical trial in IBS patients: blood 5-HT and 24 hour urinary 5-HIAA levels; assay type: in vivo, human; conditions: oral dosing
Experimental: as §1, §2

Structure (SMILES): COc1cccc(-c2ccc([C@@H](Oc3cc(-c4ccc(C[C@H](N)C(=O)O)cc4)nc(N)n3)C(F)(F)F)cc2)c1 [(S)-2-amino-3-(4-(2-amino-6-((R)-2,2,2-trifluoro-1-(3′-methoxybiphenyl-4-yl)ethoxy)pyrimidin-4-yl)phenyl)propanoic acid]
- improvement in global response in relation to baseline serotonin levels (5-HIAA in 24 hour urine prior to dosing) ([1]; IBS patients with comparatively high baseline levels versus those without): greater beneficial effect in IBS patients who had comparatively high baseline levels
- weekly global assessment (adequate relief of IBS pain and discomfort) ([1]; high dose arm (1000 mg QID, oral capsules) versus placebo, 28 day treatment period): statistically significant improvement versus placebo
- stool consistency (Bristol Stool Scale) ([1]; high dose arm (1000 mg QID, oral capsules), 28 day treatment period): significant improvement
- 24 hour urinary 5-HIAA levels (5-HIAA and 5-HT levels): significant reduction
- blood 5-HT levels (5-HIAA and 5-HT levels): reduction
